Assay results: patent US7972859B2, “Authentication of ingestible products using saccharides as markers” (Authentix, Inc., priority 2006, dated 2011)
Like-named read-outs stand apart in the source and are kept apart here.

Experiments:
Maltose binding protein = Maltose binding protein (Escherichia coli, UniProt P0AEX9); conditions: cited from earlier work
MBP [1] = biological target: T1, MBP (Escherichia coli, UniProt P0AEX9); experiment: inhibition of amylose-MBP binding by maltose (ELISA); design: 6xHis (C); made in house; host or cells: E. coli BL-21 (DE3); species or system E. coli
MBP [2] = biological target: T1, MBP
Procedure: TMB (3,3′,5,5′ tetramethylbenzidine) is a chromogen that yields a blue color when oxidized with hydrogen peroxide (catalyzed by HRP) with major absorbances at 370 nm and 652 nm. Adding sulfuric or phosphoric acid to stop the reaction changes the product to yellow that absorbs at 450 nm and provides greater sensitivity than the blue product.
For any test samples outside of such a range, dilution with a buffered solution is carried out.

OC[C@H]1O[C@H](O[C@H]2[C@H](O)[C@@H](O)[C@H](O)O[C@@H]2CO)[C@H](O)[C@@H](O)[C@@H]1O [maltose]
saturated at (level) (Maltose binding protein; saturation of maltose binding protein, as ppb): about 400 ppb
saturated at (concentration) (Maltose binding protein; saturation of maltose binding protein): about 10 μM
interference with binding of MBP with amylose (MBP [1]; 50 μM maltose): 90%
inhibition at 5000 µM (MBP [1]; read-out: inhibition of binding of MBP to amylose): 95%

amylose
Absorbance at 450 nm (MBP [2]; Na2CO3 buffer pH 8.3, listed as level 0.0001 (unit not given)): 0.215
Absorbance at 450 nm (MBP [2]; Na2CO3 buffer pH 8.3, listed as level 0.0002 (unit not given)): 0.181
Absorbance at 450 nm (MBP [2]; Na2CO3 buffer pH 8.3, listed as level 0.0005 (unit not given)): 0.233
Absorbance at 450 nm (MBP [2]; Na2CO3 buffer pH 8.3, listed as level 0.001 (unit not given)): 0.216
Absorbance at 450 nm (MBP [2]; Na2CO3 buffer pH 8.3, listed as level 0.01 (unit not given)): 0.440
Absorbance at 450 nm (MBP [2]; Na2CO3 buffer pH 8.3, listed as level 0.1 (unit not given)): 0.870
Absorbance at 450 nm (MBP [2]; Na2CO3 buffer pH 8.3, listed as level 1 (unit not given)): 0.748
Absorbance at 450 nm (MBP [2]; Na2CO3 buffer pH 8.9, listed as level 0.0001 (unit not given)): 0.215
Absorbance at 450 nm (MBP [2]; Na2CO3 buffer pH 8.9, listed as level 0.0002 (unit not given)): 0.170
Absorbance at 450 nm (MBP [2]; Na2CO3 buffer pH 8.9, listed as level 0.0005 (unit not given)): 0.175
Absorbance at 450 nm (MBP [2]; Na2CO3 buffer pH 8.9, listed as level 0.001 (unit not given)): 0.248
Absorbance at 450 nm (MBP [2]; Na2CO3 buffer pH 8.9, listed as level 0.01 (unit not given)): 0.502
Absorbance at 450 nm (MBP [2]; Na2CO3 buffer pH 8.9, listed as level 0.1 (unit not given)): 0.847
Absorbance at 450 nm (MBP [2]; Na2CO3 buffer pH 8.9, listed as level 1 (unit not given)): 0.787
Absorbance at 450 nm (MBP [2]; Na2CO3 buffer pH 9.3, listed as level 0.0001 (unit not given)): 0.196
Absorbance at 450 nm (MBP [2]; Na2CO3 buffer pH 9.3, listed as level 0.0002 (unit not given)): 0.169
Absorbance at 450 nm (MBP [2]; Na2CO3 buffer pH 9.3, listed as level 0.0005 (unit not given)): 0.152
Absorbance at 450 nm (MBP [2]; Na2CO3 buffer pH 9.3, listed as level 0.001 (unit not given)): 0.179
Absorbance at 450 nm (MBP [2]; Na2CO3 buffer pH 9.3, listed as level 0.01 (unit not given)): 0.438
Absorbance at 450 nm (MBP [2]; Na2CO3 buffer pH 9.3, listed as level 0.1 (unit not given)): 0.828
Absorbance at 450 nm (MBP [2]; Na2CO3 buffer pH 9.3, listed as level 1 (unit not given)): 0.788
Absorbance at 450 nm (MBP [2]; Na2CO3 buffer pH 9.9, listed as level 0.0001 (unit not given)): 0.235
Absorbance at 450 nm (MBP [2]; Na2CO3 buffer pH 9.9, listed as level 0.0002 (unit not given)): 0.182
Absorbance at 450 nm (MBP [2]; Na2CO3 buffer pH 9.9, listed as level 0.0005 (unit not given)): 0.192
Absorbance at 450 nm (MBP [2]; Na2CO3 buffer pH 9.9, listed as level 0.001 (unit not given)): 0.241
Absorbance at 450 nm (MBP [2]; Na2CO3 buffer pH 9.9, listed as level 0.01 (unit not given)): 0.452
Absorbance at 450 nm (MBP [2]; Na2CO3 buffer pH 9.9, listed as level 0.1 (unit not given)): 0.849
Absorbance at 450 nm (MBP [2]; Na2CO3 buffer pH 9.9, listed as level 1 (unit not given)): 0.868
Absorbance at 450 nm (MBP [2]; Na2CO3 buffer pH 10, listed as level 0.0001 (unit not given)): 0.237
Absorbance at 450 nm (MBP [2]; Na2CO3 buffer pH 10, listed as level 0.0002 (unit not given)): 0.224
Absorbance at 450 nm (MBP [2]; Na2CO3 buffer pH 10, listed as level 0.0005 (unit not given)): 0.183
Absorbance at 450 nm (MBP [2]; Na2CO3 buffer pH 10, listed as level 0.001 (unit not given)): 0.160
Absorbance at 450 nm (MBP [2]; Na2CO3 buffer pH 10, listed as level 0.01 (unit not given)): 0.432
Absorbance at 450 nm (MBP [2]; Na2CO3 buffer pH 10, listed as level 0.1 (unit not given)): 0.793
Absorbance at 450 nm (MBP [2]; Na2CO3 buffer pH 10, listed as level 1 (unit not given)): 0.918
Absorbance at 450 nm (MBP [2]; Na2CO3 buffer pH 11, listed as level 0.0001 (unit not given)): 0.185
Absorbance at 450 nm (MBP [2]; Na2CO3 buffer pH 11, listed as level 0.0002 (unit not given)): 0.183
Absorbance at 450 nm (MBP [2]; Na2CO3 buffer pH 11, listed as level 0.0005 (unit not given)): 0.215
Absorbance at 450 nm (MBP [2]; Na2CO3 buffer pH 11, listed as level 0.001 (unit not given)): 0.193
Absorbance at 450 nm (MBP [2]; Na2CO3 buffer pH 11, listed as level 0.01 (unit not given)): 0.512
Absorbance at 450 nm (MBP [2]; Na2CO3 buffer pH 11, listed as level 0.1 (unit not given)): 0.845
Absorbance at 450 nm (MBP [2]; Na2CO3 buffer pH 11, listed as level 1 (unit not given)): 0.908
Absorbance at 450 nm (MBP [2]; NaHCO3 buffer pH 5.7, listed as level 0.0001 (unit not given)): 0.297
Absorbance at 450 nm (MBP [2]; NaHCO3 buffer pH 5.7, listed as level 0.0002 (unit not given)): 0.264
Absorbance at 450 nm (MBP [2]; NaHCO3 buffer pH 5.7, listed as level 0.0005 (unit not given)): 0.314
Absorbance at 450 nm (MBP [2]; NaHCO3 buffer pH 5.7, listed as level 0.001 (unit not given)): 0.238
Absorbance at 450 nm (MBP [2]; NaHCO3 buffer pH 5.7, listed as level 0.01 (unit not given)): 0.465
Absorbance at 450 nm (MBP [2]; NaHCO3 buffer pH 5.7, listed as level 0.1 (unit not given)): 0.861
Absorbance at 450 nm (MBP [2]; NaHCO3 buffer pH 5.7, listed as level 1 (unit not given)): 0.815
Absorbance at 450 nm (MBP [2]; NaHCO3 buffer pH 6.3, listed as level 0.0001 (unit not given)): 0.243
Absorbance at 450 nm (MBP [2]; NaHCO3 buffer pH 6.3, listed as level 0.0002 (unit not given)): 0.192
Absorbance at 450 nm (MBP [2]; NaHCO3 buffer pH 6.3, listed as level 0.0005 (unit not given)): 0.271
Absorbance at 450 nm (MBP [2]; NaHCO3 buffer pH 6.3, listed as level 0.001 (unit not given)): 0.219
Absorbance at 450 nm (MBP [2]; NaHCO3 buffer pH 6.3, listed as level 0.01 (unit not given)): 0.392
Absorbance at 450 nm (MBP [2]; NaHCO3 buffer pH 6.3, listed as level 0.1 (unit not given)): 0.879
Absorbance at 450 nm (MBP [2]; NaHCO3 buffer pH 6.3, listed as level 1 (unit not given)): 0.826
Absorbance at 450 nm (MBP [2]; NaHCO3 buffer pH 6.9, listed as level 0.0001 (unit not given)): 0.199
Absorbance at 450 nm (MBP [2]; NaHCO3 buffer pH 6.9, listed as level 0.0002 (unit not given)): 0.154
Absorbance at 450 nm (MBP [2]; NaHCO3 buffer pH 6.9, listed as level 0.0005 (unit not given)): 0.234
Absorbance at 450 nm (MBP [2]; NaHCO3 buffer pH 6.9, listed as level 0.001 (unit not given)): 0.140
Absorbance at 450 nm (MBP [2]; NaHCO3 buffer pH 6.9, listed as level 0.01 (unit not given)): 0.397
Absorbance at 450 nm (MBP [2]; NaHCO3 buffer pH 6.9, listed as level 0.1 (unit not given)): 0.896
Absorbance at 450 nm (MBP [2]; NaHCO3 buffer pH 6.9, listed as level 1 (unit not given)): 0.853
Absorbance at 450 nm (MBP [2]; NaHCO3 buffer pH 7.1, listed as level 0.0001 (unit not given)): 0.217
Absorbance at 450 nm (MBP [2]; NaHCO3 buffer pH 7.1, listed as level 0.0002 (unit not given)): 0.195
Absorbance at 450 nm (MBP [2]; NaHCO3 buffer pH 7.1, listed as level 0.0005 (unit not given)): 0.200
Absorbance at 450 nm (MBP [2]; NaHCO3 buffer pH 7.1, listed as level 0.001 (unit not given)): 0.159
Absorbance at 450 nm (MBP [2]; NaHCO3 buffer pH 7.1, listed as level 0.01 (unit not given)): 0.366
Absorbance at 450 nm (MBP [2]; NaHCO3 buffer pH 7.1, listed as level 0.1 (unit not given)): 0.855
Absorbance at 450 nm (MBP [2]; NaHCO3 buffer pH 7.1, listed as level 1 (unit not given)): 0.849
Absorbance at 450 nm (MBP [2]; NaHCO3 buffer pH 7.7, listed as level 0.0001 (unit not given)): 0.242
Absorbance at 450 nm (MBP [2]; NaHCO3 buffer pH 7.7, listed as level 0.0002 (unit not given)): 0.208
Absorbance at 450 nm (MBP [2]; NaHCO3 buffer pH 7.7, listed as level 0.0005 (unit not given)): 0.187
Absorbance at 450 nm (MBP [2]; NaHCO3 buffer pH 7.7, listed as level 0.001 (unit not given)): 0.254
Absorbance at 450 nm (MBP [2]; NaHCO3 buffer pH 7.7, listed as level 0.01 (unit not given)): 0.387
Absorbance at 450 nm (MBP [2]; NaHCO3 buffer pH 7.7, listed as level 0.1 (unit not given)): 0.817
Absorbance at 450 nm (MBP [2]; NaHCO3 buffer pH 7.7, listed as level 1 (unit not given)): 0.809

maltotriose
Kd (Maltose binding protein; Kd expressed as ppb): about 120 ppb
